Patent US10570099B2, “Salts of an epidermal growth factor receptor kinase inhibitor” (Celgene CAR LLC, priority 2012, dated 2020)

What was measured:
Format in all cases: physicochemical
[1] = Intrinsic dissolution of compressed discs; settings: early time points
Method: A Sotax AT7 dissolution bath (USP 2, EP 2 apparatus) was used for the dissolution study in which paddles were used to stir the media. All tests were carried out at 37° C. and a paddle speed of 100 rpm.
(§1) Approximately 100-120 mg of each form was compressed into discs by placing the material into a die (diameter: 13 mm) and compressing the die under 5 tons of pressure in a hydraulic press for ca. 2 minutes. A Sotax AT7 (conformed to EP2 and USP2) dissolution instrument was used containing paddles to stir the media at 100 rpm. Dissolution media of pH 3 (1% SDS) and pH 4.5 (1% SDS) were prepared using citrate/phosphate buffer. All materials were tested in 750 ml of the buffer medium. Discs were added at time=0 seconds and allowed to sink to the bottom of the dissolution vessel before stirring began. ca. 1 ml aliquots of media were extracted from the dissolution vessels at times 1, 5, 10, 15, 30, 60, 120, 240 minutes and 24 hours, and tested for dissolved salt concentration by HPLC-UV. The dissolution tests were carried out in duplicate. For both dissolution media, the peak areas for the initial time points (up to 15 minutes), fell below the limit of quantification, however, when plotting Dissolution rate vs. time, the steepest part of the curve occurs during these early time points.
as §1, with “material” for “each form”, “API” for “dissolved salt”

[2] = 1 week stability study (XRPD and HPLC); settings: 1 week, listed as hydrobromide salt
Method: (§2) Resulting solids were analysed by XRPD and HPLC to establish if any changes had occurred.
as §2
The resulting solids were analysed by XRPD and HPLC to establish if any changes had occurred.

[3] = Salt disproportionation study (slurry in deionized water); settings: deionized water slurry
Method: The pH of the supernatant was also monitored.
The hydrobromide salt was slurried in deionised water at ambient temperature (ca. 22° C.). […] The pH of the supernatant was also monitored.

[4] = Dynamic vapour sorption (DVS)
Method: For dynamic vapour sorption (DVS), approximately 10-20 mg of sample was placed into a wire mesh vapour sorption balance pan and loaded into a DVS-1 dynamic vapour sorption balance by Surface Measurement Systems. The sample was subjected to a ramping profile from 20-90% relative humidity (RH) at 10% increments, maintaining the sample at each step until a stable weight had been achieved (99.5% step completion). After completion of the sorption cycle, the sample was dried using the same procedure, but all the way down to 0% RH and finally taken back to the starting point of 20% RH. The weight change during the sorption/desorption cycles were plotted, allowing for the hygroscopic nature of the sample to be determined.

[5] = Hygroscopicity judged from TGA / water retained after drying
Method: For thermogravimetric analysis (TGA), approximately 5-10 mg of material was accurately weighed into an open aluminium pan and loaded into a simultaneous thermogravimetric/differential thermal analyser (TG/DTA) and held at room temperature. The sample was then heated at a rate of 10° C./min from 25° C. to 300° C. during which time the change in sample weight was recorded along with any differential thermal events (DTA). Nitrogen was used as the purge gas, at a flow rate of 100 cm^3/min.

[6] = 1 week stability of primary screen salts at 40° C./75% RH and 80° C. (open vials, XRPD)
Method: (open vials). TGA was carried out after the stability studies for samples containing sufficient material.

[7] = 40° C./75% RH, closed (crimped) vial

## Br.C=CC(=O)Nc1cccc(Nc2nc(Nc3ccc(N4CCN(C(C)=O)CC4)cc3OC)ncc2C(F)(F)F)c1 [Form I hydrobromide salt]
[1]; pH 3.0 (1% SDS), tablet 1
  intrinsic dissolution value: approximately 0.35 mg/cm^2/min
[1]; pH 3.0 (1% SDS), tablet 2
  intrinsic dissolution value: approximately 0.35 mg/cm^2/min
[1]; pH 4.5 (1% SDS), tablet 1
  intrinsic dissolution value: approximately 0.27 mg/cm^2/min
[1]; pH 4.5 (1% SDS), tablet 2
  intrinsic dissolution value: ~0.28 mg/cm^2/min
[2]; [7]
  HPLC purity after storage: 97.2%
  XRPD after storage: No polymorphic form changes observed
[2]; 40° C./75% RH, open vial
  HPLC purity after storage: 97.2%
  XRPD after storage: No polymorphic form changes observed
[2]; 80° C., open vial
  HPLC purity after storage: 97.1%
  XRPD after storage: No polymorphic form changes observed
[3]; 1 hr
  pH of the supernatant: pH 1
[3]; 24 hrs
  pH of the supernatant: pH 1
[3]; 48 hrs
  pH of the supernatant: pH 1
[4]; after DVS cycles, listed as hydrobromide salt
  post DVS XRPD analysis (polymorphic form): remain consistent
[4]; between 20 and 70% RH
  water uptake (DVS): 0.97%
[5]
  hygroscopicity (TGA, water retained at ambient conditions): slightly hygroscopic
[6]
  Stability 40° C./75% RH (open conditions): No form change, slight
  Stability 80° C. (open conditions): No Form change.
